Legend:
Assay type in all cases: in vivo
[1] = test system: Surinam grass (Brachiaria decumbens); experiment: Test B postemergence
Outline: (§1)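 Seeds were planted and sprayed preemergence with test chemical in a non-phytotoxic solvent mixture containing surfactant; postemergence plants (2 to 18 cm, 1- to 4-leaf stage) received the same formulation. Greenhouse hold 13 to 15 days, then visual rating versus untreated controls on a 0–100 scale (0 no effect, 100 complete control).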

[2] = test system: barnyardgrass (Echinochloa crus-galli); experiment: Test B postemergence
Outline: as §1

[3] = test system: blackgrass (Alopecurus myosuroides); experiment: Test B postemergence
Outline: as §1

[4] = test system: cocklebur (Xanthium strumarium); experiment: Test B postemergence
Outline: as §1

corn (Zea mays) [5] = experiment: Test B postemergence
Outline: as §1

[6] = test system: crabgrass (Digitaria sanguinalis); experiment: Test B postemergence
Outline: as §1

[7] = test system: giant foxtail (Setaria faberii); experiment: Test B postemergence
Outline: as §1

[8] = test system: lambsquarters (Chenopodium album); experiment: Test B postemergence
Outline: as §1

[9] = test system: morning glory (Ipomoea hederacea); experiment: Test B postemergence
Outline: as §1

[10] = test system: pigweed (Amaranthus retroflexus); experiment: Test B postemergence
Outline: as §1

[11] = test system: velvetleaf (Abutilon theophrasti); experiment: Test B postemergence
Outline: as §1

[12] = test system: wheat (Triticum aestivum); experiment: Test B postemergence
Outline: as §1

wild oat (Avena fatua) = experiment: Test B postemergence
Outline: as §1

[13] = test system: Surinam grass (Brachiaria decumbens); experiment: Test B preemergence
Outline: as §1

[14] = test system: barnyardgrass (Echinochloa crus-galli); experiment: Test B preemergence
Outline: as §1

[15] = test system: cocklebur (Xanthium strumarium); experiment: Test B preemergence
Outline: as §1

corn (Zea mays) [16] = experiment: Test B preemergence
Outline: as §1

[17] = test system: crabgrass (Digitaria sanguinalis); experiment: Test B preemergence
Outline: as §1

[18] = test system: giant foxtail (Setaria faberii); experiment: Test B preemergence
Outline: as §1

[19] = test system: lambsquarters (Chenopodium album); experiment: Test B preemergence
Outline: as §1

[20] = test system: morning glory (Ipomoea hederacea); experiment: Test B preemergence
Outline: as §1

[21] = test system: pigweed (Amaranthus retroflexus); experiment: Test B preemergence
Outline: as §1

rice (Oryza saliva) [22] = experiment: Test B preemergence
Outline: as §1

[23] = test system: velvetleaf (Abutilon theophrasti); experiment: Test B preemergence
Outline: as §1

[24] = test system: barnyardgrass (Echinochloa crus-galli); experiment: Test C flooded paddy test; conditions: for Barnyardgrass plant response rating: Flooded Paddy, scale 0 to 100, 0 no effect, 100 complete control; for Plant response rating, Barnyardgrass: scale 0 to 100 (0 no effect, 100 complete control)
Outline: (§2)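 Visually assessed vs untreated controls 12–14 d post-treatment (greenhouse). Flooded paddy plants were at the 2-leaf stage; scale 0 = no effect, 100 = complete control.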

[25] = test system: duck salad (Heteranthera limosa); experiment: Test C flooded paddy test; conditions: for Ducksalad plant response rating: Flooded Paddy, scale 0 to 100, 0 no effect, 100 complete control; for Plant response rating, Ducksalad: scale 0 to 100 (0 no effect, 100 complete control)
Outline: as §2

rice (Oryza saliva) [26] = experiment: Test C flooded paddy test; conditions: for Rice plant response rating: Flooded Paddy, scale 0 to 100, 0 no effect, 100 complete control; for Plant response rating, Rice: scale 0 to 100 (0 no effect, 100 complete control)
Outline: as §2

[27] = test system: smallflower flatsedge (Cyperus difformis); experiment: Test C flooded paddy test; conditions: for Flatsedge plant response rating: Flooded Paddy, scale 0 to 100, 0 no effect, 100 complete control; for Plant response rating, Flatsedge: scale 0 to 100 (0 no effect, 100 complete control)
Outline: as §2

[28] = Rate 125 g/ha, scale 0 to 100, 0 no effect, 100 complete control
[29] = Rate 500 g/ha, scale 0 (no effect) to 100 (complete control), 13 to 15 days
[30] = Preemergence, Rate 500 g/ha, scale 0 to 100, 0 no effect, 100 complete control
[31] = preemergence, Rate 125 g/ha, scale of 0 to 100 where 0 is no effect and 100 is complete control, 13 to 15 days
[32] = flooded paddy test, Rate 125 g/ha
[33] = flooded paddy test, Rate 250 g/ha
[34] = flooded paddy test, Rate 62 g/ha, visually evaluated after 12 to 14 days, 0 = no effect, 100 = complete control
[35] = Rate 500 g/ha, scale 0 to 100, 0 is no effect, 100 is complete control, 13 to 15 days
[36] = flooded paddy test, Rate 62 g/ha
[37] = Rate 125 g/ha, scale 0 (no effect) to 100 (complete control), 13 to 15 days

COc1cc(C)nc(N2CCC(n3ccc(C(C)(C)C)n3)C2=O)n1 (stereo not drawn) [Compound 137]
40: Plant response rating, Barnyardgrass [14, 30]
0: Plant response rating, Surinam grass [1, 28] | Plant response rating, Surinam grass [1, 29] | Plant response rating, Barnyardgrass [2, 28] | Plant response rating, Barnyardgrass [2, 29] | Plant response rating, Blackgrass [3, 28] | Plant response rating, Blackgrass [3, 29] | Plant response rating, Cocklebur [4, 28] | Plant response rating, Cocklebur [4, 29] | Plant response rating, Corn (corn (Zea mays) [5]; [28]) | Plant response rating, Corn (corn (Zea mays) [5]; [29]) | Plant response rating, Crabgrass [6, 28] | Plant response rating, Crabgrass [6, 29] | Plant response rating, Foxtail, Giant [7, 28] | Plant response rating, Lambsquarters [8, 28] | Plant response rating, Lambsquarters [8, 29] | Plant response rating, Morningglory [9, 28] | Plant response rating, Morningglory [9, 29] | Plant response rating, Pigweed [10, 28] | Plant response rating, Pigweed [10, 29] | Plant response rating, Velvetleaf [11, 28] | Plant response rating, Velvetleaf [11, 29] | Plant response rating, Wheat [12, 28] | Plant response rating, Wheat [12, 29] | Plant response rating, Wild Oat (wild oat (Avena fatua); [28]) | Plant response rating, Wild Oat (wild oat (Avena fatua); [29]) | Plant response rating, Surinam grass [13, 31] | Plant response rating, Barnyardgrass [14, 31] | Plant response rating, Cocklebur [15, 31] | Plant response rating, Corn (corn (Zea mays) [16]; [30]) | Plant response rating, Corn (corn (Zea mays) [16]; [31]) | Plant response rating, Crabgrass [17, 31] | Plant response rating, Foxtail, Giant [18, 30] | Plant response rating, Foxtail, Giant [18, 31] | Plant response rating, Lambsquarters [19, 30] | Plant response rating, Lambsquarters [19, 31] | Plant response rating, Morningglory [20, 30] | Plant response rating, Morningglory [20, 31] | Plant response rating, Pigweed [21, 30] | Plant response rating, Pigweed [21, 31] | Plant response rating, Velvetleaf [23, 31] | Barnyardgrass plant response rating ([24]; Rate 500 g/ha) | Plant response rating, Barnyardgrass [24, 32] | Plant response rating, Barnyardgrass [24, 33] | Plant response rating (scale 0 to 100), Barnyardgrass [24, 34] | Ducksalad plant response rating ([25]; Rate 500 g/ha) | Plant response rating, Ducksalad [25, 32] | Plant response rating, Ducksalad [25, 33] | Plant response rating (scale 0 to 100), Ducksalad [25, 34] | Rice plant response rating (rice (Oryza saliva) [26]; Rate 500 g/ha) | Plant response rating, Rice (rice (Oryza saliva) [26]; [32]) | Plant response rating, Rice (rice (Oryza saliva) [26]; [33]) | Plant response rating (scale 0 to 100), Rice (rice (Oryza saliva) [26]; [34]) | Flatsedge plant response rating ([27]; Rate 500 g/ha) | Plant response rating, Flatsedge [27, 32] | Plant response rating, Flatsedge [27, 33] | Plant response rating (scale 0 to 100), Flatsedge [27, 34]
50: Plant response rating, Surinam grass [13, 30]
70: Plant response rating, Rice (rice (Oryza saliva) [22]; [30])
90: Plant response rating, Foxtail, Giant [7, 29]
80: Plant response rating, Cocklebur [15, 30] | Plant response rating, Crabgrass [17, 30] | Plant response rating, Velvetleaf [23, 30]
30: Plant response rating, Rice (rice (Oryza saliva) [22]; [31])

CCCCC(CCCC)c1ccn(C2OCN(c3cccc(OC(F)(F)F)c3)C2=O)n1 (stereo not drawn) [Compound 113]
40: Plant response rating, Crabgrass [6, 28] | Plant response rating, Crabgrass [6, 35] | Plant response rating, Wild Oat (wild oat (Avena fatua); [28]) | Plant response rating, Wild Oat (wild oat (Avena fatua); [35])
30: Plant response rating, Lambsquarters [8, 28] | Plant response rating, Morningglory [9, 35] | Plant response rating, Wheat [12, 28] | Plant response rating, Wheat [12, 35]
100: Plant response rating, Lambsquarters [8, 35] | Plant response rating, Pigweed [10, 28] | Plant response rating, Pigweed [10, 35]
0: Plant response rating, Surinam grass [1, 28] | Plant response rating, Surinam grass [1, 35] | Plant response rating, Barnyardgrass [2, 28] | Plant response rating, Barnyardgrass [2, 35] | Plant response rating, Blackgrass [3, 28] | Plant response rating, Blackgrass [3, 35] | Plant response rating, Cocklebur [4, 28] | Plant response rating, Corn (corn (Zea mays) [5]; [28]) | Plant response rating, Corn (corn (Zea mays) [5]; [35]) | Plant response rating, Foxtail, Giant [7, 28] | Plant response rating, Morningglory [9, 28] | Plant response rating, Velvetleaf [11, 28] | Plant response rating, Velvetleaf [11, 35] | Plant response rating, Surinam grass [13, 30] | Plant response rating, Surinam grass [13, 31] | Plant response rating, Barnyardgrass [14, 30] | Plant response rating, Barnyardgrass [14, 31] | Plant response rating, Cocklebur [15, 30] | Plant response rating, Cocklebur [15, 31] | Plant response rating, Corn (corn (Zea mays) [16]; [30]) | Plant response rating, Corn (corn (Zea mays) [16]; [31]) | Plant response rating, Crabgrass [17, 30] | Plant response rating, Crabgrass [17, 31] | Plant response rating, Foxtail, Giant [18, 30] | Plant response rating, Foxtail, Giant [18, 31] | Plant response rating, Lambsquarters [19, 30] | Plant response rating, Lambsquarters [19, 31] | Plant response rating, Morningglory [20, 30] | Plant response rating, Morningglory [20, 31] | Plant response rating, Pigweed [21, 30] | Plant response rating, Pigweed [21, 31] | Plant response rating, Rice (rice (Oryza saliva) [22]; [30]) | Plant response rating, Rice (rice (Oryza saliva) [22]; [31]) | Plant response rating, Velvetleaf [23, 30] | Plant response rating, Velvetleaf [23, 31] | Barnyardgrass plant response rating ([24]; Rate 250 g/ha) | Barnyardgrass plant response rating ([24]; Rate 500 g/ha) | Plant response rating, Barnyardgrass [24, 36] | Plant response rating, Barnyardgrass [24, 32] | Ducksalad plant response rating ([25]; Rate 250 g/ha) | Ducksalad plant response rating ([25]; Rate 500 g/ha) | Plant response rating, Ducksalad [25, 36] | Plant response rating, Ducksalad [25, 32] | Rice plant response rating (rice (Oryza saliva) [26]; Rate 250 g/ha) | Rice plant response rating (rice (Oryza saliva) [26]; Rate 500 g/ha) | Plant response rating, Rice (rice (Oryza saliva) [26]; [36]) | Plant response rating, Rice (rice (Oryza saliva) [26]; [32]) | Flatsedge plant response rating ([27]; Rate 250 g/ha) | Flatsedge plant response rating ([27]; Rate 500 g/ha) | Plant response rating, Flatsedge [27, 36] | Plant response rating, Flatsedge [27, 32]
20: Plant response rating, Foxtail, Giant [7, 35]
70: Plant response rating, Cocklebur [4, 35]

Cc1ccc(N2CCC(n3ccc(C(C)(C)C)n3)C2=O)cc1OCCI (stereo not drawn) [Compound 108]
30: Plant response rating, Surinam grass [13, 30] | Flatsedge plant response rating ([27]; Rate 250 g/ha)
90: Flatsedge plant response rating ([27]; Rate 500 g/ha)
60: Plant response rating, Velvetleaf [11, 35] | Plant response rating, Pigweed [21, 30]
70: Plant response rating, Morningglory [9, 35]
20: Plant response rating, Surinam grass [1, 35] | Plant response rating, Cocklebur [4, 37] | Plant response rating, Foxtail, Giant [18, 30] | Plant response rating, Pigweed [21, 31] | Barnyardgrass plant response rating ([24]; Rate 500 g/ha)
0: Plant response rating, Surinam grass [1, 37] | Plant response rating, Barnyardgrass [2, 37] | Plant response rating, Barnyardgrass [2, 35] | Plant response rating, Blackgrass [3, 37] | Plant response rating, Blackgrass [3, 35] | Plant response rating, Corn (corn (Zea mays) [5]; [37]) | Plant response rating, Corn (corn (Zea mays) [5]; [35]) | Plant response rating, Crabgrass [6, 37] | Plant response rating, Crabgrass [6, 35] | Plant response rating, Foxtail, Giant [7, 37] | Plant response rating, Foxtail, Giant [7, 35] | Plant response rating, Wheat [12, 35] | Plant response rating, Wild Oat (wild oat (Avena fatua); [35]) | Plant response rating, Surinam grass [13, 31] | Plant response rating, Barnyardgrass [14, 30] | Plant response rating, Barnyardgrass [14, 31] | Plant response rating, Cocklebur [15, 30] | Plant response rating, Cocklebur [15, 31] | Plant response rating, Corn (corn (Zea mays) [16]; [30]) | Plant response rating, Corn (corn (Zea mays) [16]; [31]) | Plant response rating, Crabgrass [17, 30] | Plant response rating, Crabgrass [17, 31] | Plant response rating, Foxtail, Giant [18, 31] | Plant response rating, Morningglory [20, 30] | Plant response rating, Morningglory [20, 31] | Plant response rating, Rice (rice (Oryza saliva) [22]; [30]) | Plant response rating, Rice (rice (Oryza saliva) [22]; [31]) | Plant response rating, Velvetleaf [23, 30] | Plant response rating, Velvetleaf [23, 31] | Barnyardgrass plant response rating ([24]; Rate 250 g/ha) | Plant response rating, Barnyardgrass [24, 36] | Plant response rating, Barnyardgrass [24, 32] | Ducksalad plant response rating ([25]; Rate 250 g/ha) | Ducksalad plant response rating ([25]; Rate 500 g/ha) | Plant response rating, Ducksalad [25, 36] | Plant response rating, Ducksalad [25, 32] | Rice plant response rating (rice (Oryza saliva) [26]; Rate 250 g/ha) | Rice plant response rating (rice (Oryza saliva) [26]; Rate 500 g/ha) | Plant response rating, Rice (rice (Oryza saliva) [26]; [36]) | Plant response rating, Rice (rice (Oryza saliva) [26]; [32]) | Plant response rating, Flatsedge [27, 36] | Plant response rating, Flatsedge [27, 32]
100: Plant response rating, Lambsquarters [19, 30] | Plant response rating, Lambsquarters [19, 31]
40: Plant response rating, Cocklebur [4, 35] | Plant response rating, Pigweed [10, 35]
80: Plant response rating, Lambsquarters [8, 35]
